Consider three compounds from ChEMBL document CHEMBL5154741, “Antibacterial alkylguanidino ureas: Molecular simplification approach, searching for membrane-based MoA” (Eur J Med Chem, 2022).

Molecules are shown by their SMILES. In brackets after ≈: the same amount, converted by molar mass. Activity calls are given as the source filed them. The rule behind the calls is not given here.

Data set [1] can be described thus: Hemolytic activity against human RBC at 32 ug/ml incubated for 30 mins (reference value: 0%). The class given is toxicity, cell-based, Erythrocyte. The settings on record: human red blood cells (erythrocytes), at 32 µg/mL, read-out: Activity.
For data set [2], the system named is Cell membrane. As to the kind of experiment: Disruption of membrane integrity in Escherichia coli MG1655 assessed as increase in PI uptake at 16 ug/ml measured after 1 hr by SYTO9/PI staining based fluorometric analysis. Format: subcellular. The following applies: dose 16.0 µg/ml.
Data set [3] is described as follows: Hemolytic activity against human RBC at 4 ug/ml incubated for 30 mins (reference value: 0%). The class given is toxicity, cell-based, Erythrocyte. The following applies: human red blood cells (erythrocytes), at 4 µg/mL, read-out: Activity.
The subject of data set [4] is Cell membrane. As to the kind of experiment: Disruption of membrane integrity in Escherichia coli MG1655 assessed as increase in PI positive cells at 16 ug/ml measured after 1 hr by SYTO9/PI staining based confocal laser scanning microscope analysis. The class given is subcellular. The following applies: dose 16.0 µg/ml.
A further data set concerns Escherichia coli. As to the kind of experiment: Antibacterial activity against Escherichia coli CCUG assessed as bacterial growth inhibition incubated for 18 hrs by micro-dilution broth method. The class given is functional. On the technique in general: Dilution methods test growth across graded concentrations, often in twofold steps.
The test system of a further data set is Streptococcus pyogenes. The data set can be described thus: Antibacterial activity against Streptococcus pyogenes ATCC 12344 assessed as bacterial growth inhibition incubated for 18 hrs by micro-dilution broth method. Format: functional.
The next data set deals with Enterobacter cloacae. As to the kind of experiment: Antibacterial activity against Enterobacter cloacae VA-417/02 assessed as bacterial growth inhibition incubated for 18 hrs by CLSI based micro-dilution broth method. Format: functional.
For the next data set, the system named is Acinetobacter baumannii. As to the kind of experiment: Antibacterial activity against Acinetobacter baumannii AC-54/97 assessed as bacterial growth inhibition incubated for 18 hrs by CLSI based micro-dilution broth method. Format: functional.
The nature of data set [5]: Apparent permeability of the compound across bacterial inner membrane mimic pure POPG in PBS buffer at pH 7.4 incubated for 5 hrs by PAMPA based UV-Vis spectrophotometric analysis. Format: ADME. Background: The PAMPA barrier holds no transporters, so it reflects passive diffusion.
The subject of a further data set is Klebsiella pneumoniae. As to the kind of experiment: Antibacterial activity against Klebsiella pneumoniae ATCC 13833 assessed as bacterial growth inhibition incubated for 18 hrs by micro-dilution broth method. Format: functional.

As to `N=C(NCCCCCCCCNC(N)=O)NCC1CC1.O=C(O)C(F)(F)F`, the hemolysis at 0.5 h, 32 ug/ml in data set [1] worked out at 0%. Moreover, the outcome in the data set on Cell membrane [2] and with Cell membrane [4] was Active. Further, the hemolysis at 0.5 h, 4 ug/ml in data set [3] turned out to be 0%. Besides, the MIC (usually the lowest concentration that inhibits growth of the organism) with Escherichia coli was determined as 2 µg/mL; in the data set with Streptococcus pyogenes it was 0.5 µg/mL; in the data set on Enterobacter cloacae it was 4 µg/mL; with Acinetobacter baumannii, 16 µg/mL; in the data set with Klebsiella pneumoniae, 1 µg/mL. The results for the minimal bactericidal concentration (MBC) in the data set on Enterobacter cloacae and in the data set on Acinetobacter baumannii were 8 µg/mL and 16 µg/mL, respectively. In addition, in data set [5], the Papp (usually the rate of passage across a membrane or cell layer, normalised by area and donor concentration) at 5 h came to 6.1 ×10⁻⁶ cm/s.
Regarding `CCCCCCCCN(CCCCCCCCNC(=N)NCC1CC1)C(=O)N(CCCCCCNC(=N)NCC1CC1)CCCCCCNC(=N)NCC1CC1`, the hemolysis at 0.5 h, 32 ug/ml in data set [1] was determined as 8.4%. Besides, the result in the data set with Cell membrane [2] and with Cell membrane [4] was Active. The hemolysis at 0.5 h, 4 ug/ml in data set [3] was 0.5%. In addition, the minimal inhibitory concentration (MIC) with Escherichia coli was 4 µg/mL (≈ 5.09 µM); in the data set with Streptococcus pyogenes, 1 µg/mL (≈ 1.27 µM); in the data set with Enterobacter cloacae, 8 µg/mL (≈ 10.2 µM); with Acinetobacter baumannii, 8 µg/mL (≈ 10.2 µM); in the data set with Klebsiella pneumoniae, 4 µg/mL (≈ 5.09 µM). The MBC in the data set on Enterobacter cloacae and in the data set with Acinetobacter baumannii was 8 µg/mL (≈ 10.2 µM) in each case. For the same compound, in [5], the apparent permeability (Papp) at 5 h was 0.18 ×10⁻⁶ cm/s.
As to `N=C(N)NCCCCCCCCN(CCCCCCCCNC(=N)NCC1CC1)C(=O)N(CCCCCCCCNC(=N)NCC1CC1)CCCCCCCCNC(=N)NCC1CC1.O=C(O)C(F)(F)F`, the hemolysis at 0.5 h, 32 ug/ml in data set [1] was determined as 3.3%. Further, the outcome in the data set with Cell membrane [2] and in the data set with Cell membrane [4] was Active. For the same compound, the hemolysis at 0.5 h, 4 ug/ml in [3] is 0%. The MIC in the data set on Escherichia coli turned out to be 0.5 µg/mL; in the data set on Streptococcus pyogenes, 0.25 µg/mL; with Enterobacter cloacae, 2 µg/mL; in the data set with Acinetobacter baumannii it was 8 µg/mL; in the data set on Klebsiella pneumoniae, 1 µg/mL. For the same compound, the minimum bactericidal concentration (MBC) – broadly, the lowest tested concentration that kills the bacteria rather than only halting them – in the data set with Enterobacter cloacae was found to be 2 µg/mL; in the data set on Acinetobacter baumannii it was 8 µg/mL. Moreover, the apparent permeability coefficient (Papp) at 5 h in data set [5] came to 0.26 ×10⁻⁶ cm/s.
